Source: ChEMBL document CHEMBL5528034, “Fragment-to-Lead Medicinal Chemistry Publications in 2022” (J Med Chem, 2024)

Legend:
Pantothenate synthetase = molecular target: T1, Pantothenate synthetase (Mycobacterium tuberculosis, UniProt P9WIL5); experiment: Inhibition of Mycobacterium tuberculosis H37Ra pantothenate synthetase
T1 sequence (P9WIL5 whole entry): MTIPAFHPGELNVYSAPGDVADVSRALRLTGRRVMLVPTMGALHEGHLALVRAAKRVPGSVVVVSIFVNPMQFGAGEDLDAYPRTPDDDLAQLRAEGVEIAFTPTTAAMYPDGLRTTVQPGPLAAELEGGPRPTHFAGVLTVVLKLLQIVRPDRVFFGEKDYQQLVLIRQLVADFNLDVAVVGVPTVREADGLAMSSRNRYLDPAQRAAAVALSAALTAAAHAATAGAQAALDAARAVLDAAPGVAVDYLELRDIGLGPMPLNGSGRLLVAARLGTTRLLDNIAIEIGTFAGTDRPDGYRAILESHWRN

[1] = molecular target: Transcriptional enhancer factor TEF-4 (Homo sapiens, UniProt Q15562)
Description: Binding affinity to human recombinant N-terminal His-tagged TEAD2 (residues 209 to 424) expressed in Escherichia coli BL21 (DE3) assessed as dissociation constant

[2] = molecular target: Transcriptional enhancer factor TEF-1 (Homo sapiens, UniProt P28347)
Description: Binding affinity to human recombinant N-terminal His-tagged TEAD1 (residues 209 to 424) expressed in Escherichia coli BL21 (DE3) assessed as dissociation constant

Interleukin-1 beta = Interleukin-1 beta (Homo sapiens, UniProt P01584); experiment: Binding affinity to Interleukin-1beta (unknown origin) assessed as dissociation constant
[3] = molecular target: Replicase polyprotein 1ab (Severe acute respiratory syndrome coronavirus 2, UniProt P0DTD1)
Description: Binding affinity to SARS-CoV-2 Main protease assessed as dissociation constant by SPR analysis

Chain of Interleukin-1 beta (P01584 117-269 limits assumed): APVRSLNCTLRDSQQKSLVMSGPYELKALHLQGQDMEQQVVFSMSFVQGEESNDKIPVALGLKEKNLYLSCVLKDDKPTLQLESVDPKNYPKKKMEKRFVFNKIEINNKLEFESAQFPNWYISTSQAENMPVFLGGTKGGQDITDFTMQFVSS
Chain of Transcriptional enhancer factor TEF-1 (P28347 whole entry): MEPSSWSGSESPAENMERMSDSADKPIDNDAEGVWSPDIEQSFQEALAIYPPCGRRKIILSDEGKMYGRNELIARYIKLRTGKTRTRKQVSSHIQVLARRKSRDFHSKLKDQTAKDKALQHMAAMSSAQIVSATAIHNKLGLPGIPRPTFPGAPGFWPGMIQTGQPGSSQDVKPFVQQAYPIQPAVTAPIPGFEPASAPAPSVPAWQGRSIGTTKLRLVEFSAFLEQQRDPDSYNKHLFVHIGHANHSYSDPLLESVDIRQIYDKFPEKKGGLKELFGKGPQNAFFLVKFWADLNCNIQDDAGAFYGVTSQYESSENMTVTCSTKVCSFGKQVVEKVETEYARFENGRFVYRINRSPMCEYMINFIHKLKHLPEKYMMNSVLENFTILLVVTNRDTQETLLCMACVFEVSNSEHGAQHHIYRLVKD
Chain of Transcriptional enhancer factor TEF-4 (Q15562 whole entry): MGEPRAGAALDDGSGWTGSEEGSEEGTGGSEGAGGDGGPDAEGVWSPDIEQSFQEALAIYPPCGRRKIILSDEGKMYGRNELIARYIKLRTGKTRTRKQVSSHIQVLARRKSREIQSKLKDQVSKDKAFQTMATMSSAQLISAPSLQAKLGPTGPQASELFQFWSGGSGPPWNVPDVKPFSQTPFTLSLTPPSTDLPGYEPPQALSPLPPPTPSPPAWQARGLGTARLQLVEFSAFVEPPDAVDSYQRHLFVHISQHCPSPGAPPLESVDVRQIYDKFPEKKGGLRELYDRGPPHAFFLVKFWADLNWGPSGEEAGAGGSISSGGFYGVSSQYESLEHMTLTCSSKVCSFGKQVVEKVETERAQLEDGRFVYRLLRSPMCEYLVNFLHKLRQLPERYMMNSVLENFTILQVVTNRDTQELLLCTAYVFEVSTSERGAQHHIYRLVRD

Structure (SMILES): N#Cc1c(N)ncnc1-c1cnn(Cc2ccc(F)c(F)c2)c1
- IC50 (Pantothenate synthetase): 150 nM

Structure (SMILES): O=C(O)c1ccccc1Nc1cccc(C(F)(F)F)c1 [FLUFENAMIC ACID]
- Kd [1]: 73000 nM

Structure (SMILES): N#Cc1cncnc1N
- IC50 (Pantothenate synthetase): 340 nM

Structure (SMILES): C=C(F)C(=O)N1C[C@@H](n2cc(-c3cccnc3)nn2)[C@H](OCc2ccc(C(F)(F)F)cc2)C1
- Kd [2]: 170 nM

Structure (SMILES): O=C(O)c1cc(NCc2ccccc2OCCOCCOCCOc2ccccc2CNc2cc(C(=O)O)cc(-c3ccnc4ccccc34)c2)cc(-c2ccnc3ccccc23)c1
- Kd (Interleukin-1 beta): 40 nM

Structure (SMILES): O=C1N[C@@H](Cc2ccccc2)C(=O)N1c1cncc(F)c1
- Kd [3]: 23000 nM
